From US12275733B2, “Substituted pyrido[3,4-b]indoles for the treatment of cartilage disorders” (Sanofi, priority 2016, dated 2025)

Test system: ATDC5 cells
Assay: Chondrogenesis activity assay in ATDC5 cells (collagen type II induction, immunofluorescence)
Assay type: cell-based, mouse
Conditions: for EC50: collagen type II induction in ATDC5 cells, concentration reaching 50% of maximum induction; for Emax: maximum percent induction of collagen type II relative to internal reference compound at 10 μM, ATDC5 cells
How it was run: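 Collagen type II was stained in fixed, permeabilized cells with an Alexa Fluor 488 secondary and measured by high-content fluorescence imaging. ATDC5 cells had 4 days at 37 °C in insulin-supplemented differentiation medium with compound, typically 40 nM–10 μM, 0.1% DMSO. DMSO wells and a 10 μM internal reference compound were used for normalization.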

SMILES | EC50 (Mus musculus) [nM] | Emax (Mus musculus) [%] | EC50 [nM]
Cc1nccc2c1[nH]c1c(-c3cnn(C)c3)cc(Cl)cc12 [Example 151, 6-Chloro-1-methyl-8-(1-methyl-1H-pyrazol-4-yl)-9H-pyrido[3,4-b]indole] | 540 | 50 to 80 | –
COC(=O)c1cc2c([nH]c3c(-c4ccc(OC)cc4)cc(Cl)cc32)c(C)n1 [Example 152, 6-Chloro-8-(4-methoxy-phenyl)-1-methyl-9H-pyrido[3,4-b]indole-3-carboxylic acid methyl ester] | 360 | < 20 | –
CCc1nccc2c1[nH]c1c(-c3ccc(OC)cc3)cc(Cl)cc12 [Example 153, 6-Chloro-1-ethyl-8-(4-methoxy-phenyl)-9H-pyrido[3,4-b]indole] | 4500 | 50 to 80 | –
Cc1nccc2c1[nH]c1c(-c3cnc(N)nc3)cc(Cl)cc12 [Example 154, 5-(6-Chloro-1-methyl-9H-pyrido[3,4-b]indol-8-yl)-pyrimidin-2-ylamine] | 8800 | 20 to 50 | –
COc1ccc(-c2cc(Cl)cc3c2[nH]c2c(C(F)(F)F)nccc23)cc1 [Example 155, 6-Chloro-8-(4-methoxy-phenyl)-1-trifluoromethyl-9H-pyrido[3,4-b]indole] | > 3300 | < 20 | –
Cc1nccc2c1[nH]c1c(-c3cnc(-n4cccc4)nc3)cc(Cl)cc12 [Example 156, 6-Chloro-1-methyl-8-(2-pyrrol-1-yl-pyrimidin-5-yl)-9H-pyrido[3,4-b]indole] | 1500 | < 20 | –
CNc1ncc(-c2cc(Cl)cc3c2[nH]c2c(C)nccc23)cn1 [Example 157, [5-(6-Chloro-1-methyl-9H-pyrido[3,4-b]indol-8-yl)-pyrimidin-2-yl]-methyl-amine] | > 10000 | 20 to 50 | –
Cc1nccc2c1[nH]c1c(-c3ccc(Cl)c(C#N)c3Cl)cc(Cl)cc12 [Example 158] | 1900 | > 80 | –
CC(C)n1cc(-c2cc(Cl)cc3c4ccncc4n(CC(F)(F)F)c23)cn1 [Example 160, 6-Chloro-8-(1-isopropyl-1H-pyrazol-4-yl)-9-(2,2,2-trifluoro-ethyl)-9H-pyrido[3,4-b]indole] | > 10000 | < 20 | –
CCCn1cc(-c2cc(Cl)cc3c4ccncc4n(CC(F)(F)F)c23)cn1 [Example 161, 6-Chloro-8-(1-propyl-1H-pyrazol-4-yl)-9-(2,2,2-trifluoro-ethyl)-9H-pyrido[3,4-b]indole] | 2000 | > 80 | –
FC(F)(F)Cn1c2cnccc2c2cc(Cl)cc(-c3cnn(Cc4ccccc4)c3)c21 [Example 162, 8-(1-Benzyl-1H-pyrazol-4-yl)-6-chloro-9-(2,2,2-trifluoro-ethyl)-9H-pyrido[3,4-b]indole] | 590 | > 80 | –
CC(=O)OCCn1cc(-c2cc(Cl)cc3c4ccncc4n(CC(F)(F)F)c23)cn1 [Example 163, Acetic acid 2-(4-[6-chloro-9-(2,2,2-trifluoro-ethyl)-9H-pyrido[3,4-b]indol-8-yl]-pyrazol-1-yl)-ethyl ester] | 690 | > 80 | –
CCn1c2c(-c3cnn(C)c3)cc(Cl)cc2c2ccnc(C)c21 [Example 164, 6-Chloro-9-ethyl-1-methyl-8-(1-methyl-1H-pyrazol-4-yl)-9H-pyrido[3,4-b]indole] | 230 | > 80 | –
Cn1ccc(-c2cc(Cl)cc3c4ccncc4n(CC(F)(F)F)c23)c1 [Example 165, 6-Chloro-8-(1-methyl-1H-pyrrol-3-yl)-9-(2,2,2-trifluoro-ethyl)-9H-pyrido[3,4-b]indole] | > 10000 | < 20 | –
FC(F)(F)Cn1c2cnccc2c2cc(Cl)cc(-c3cnn(Cc4cccs4)c3)c21 [Example 166, 6-Chloro-8-(1-thiophen-2-ylmethyl-1H-pyrazol-4-yl)-9-(2,2,2-trifluoro-ethyl)-9H-pyrido[3,4-b]indole] | 840 | > 80 | –
FC(F)(F)Cn1c2cnccc2c2cc(Cl)cc(-c3cnn(Cc4ccccn4)c3)c21 [Example 168, 6-Chloro-8-(1-pyridin-2-ylmethyl-1H-pyrazol-4-yl)-9-(2,2,2-trifluoro-ethyl)-9H-pyrido[3,4-b]indole] | 990 | > 80 | –
COCCn1cc(-c2cc(Cl)cc3c4ccncc4n(CC(F)(F)F)c23)cn1 [Example 169, 6-Chloro-8-[1-(2-methoxy-ethyl)-1H-pyrazol-4-yl]-9-(2,2,2-trifluoro-ethyl)-9H-pyrido[3,4-b]indole] | 1300 | – | 1100
FC(F)(F)Cn1c2cnccc2c2cc(Cl)cc(-c3cnc(-c4ccccc4)s3)c21 [Example 170, 6-Chloro-8-(2-phenyl-thiazol-5-yl)-9-(2,2,2-trifluoro-ethyl)-9H-pyrido[3,4-b]indole] | > 10000 | 20 to 50 | –
COc1ccc(-c2cc(Cl)cc3c2[nH]c2c(C)nccc23)cc1OC [Example 172, 6-Chloro-8-(3,4-dimethoxy-phenyl)-1-methyl-9H-pyrido[3,4-b]indole] | > 10000 | 20 to 50 | –
FC(F)(F)Cn1c2cnccc2c2cc(Cl)cc(-c3cnn(CC4CC4)c3)c21 [Example 173, 6-Chloro-8-(1-cyclopropylmethyl-1H-pyrazol-4-yl)-9-(2,2,2-trifluoro-ethyl)-9H-pyrido[3,4-b]indole] | 1900 | > 80 | –
FC(F)(F)Cn1c2cnccc2c2cc(Cl)cc(-c3cnc(C4CC4)s3)c21 [Example 174, 6-Chloro-8-(2-cyclopropyl-thiazol-5-yl)-9-(2,2,2-trifluoro-ethyl)-9H-pyrido[3,4-b]indole] | 7300 | 50 to 80 | –
COc1cc(OC)c(-c2cc(Cl)cc3c2[nH]c2c(C)nccc23)c(OC)c1 [Example 175, 6-Chloro-1-methyl-8-(2,4,6-trimethoxy-phenyl)-9H-pyrido[3,4-b]indole] | > 10000 | < 20 | –
Cc1cc(OC(C)C)ccc1-c1cc(Cl)cc2c1[nH]c1c(C)nccc12 [Example 176, 6-Chloro-8-(4-isopropoxy-2-methyl-phenyl)-1-methyl-9H-pyrido[3,4-b]indole] | > 10000 | 20 to 50 | –
Cc1nccc2c1[nH]c1c(-c3ccc(OCc4ccccc4)cc3)cc(Cl)cc12 [Example 177, 8-(4-Benzyloxy-phenyl)-6-chloro-1-methyl-9H-pyrido[3,4-b]indole] | > 10000 | 20 to 50 | –
COc1ccc(-c2cc(Cl)cc3c2[nH]c2c(C)nccc23)c(OC)c1OC [Example 178, 6-Chloro-1-methyl-8-(2,3,4-trimethoxy-phenyl)-9H-pyrido[3,4-b]indole] | > 10000 | 20 to 50 | –
Cc1nccc2c1[nH]c1c(-c3ccc4c(c3)CCO4)cc(Cl)cc12 [Example 179, 6-Chloro-8-(2,3-dihydro-benzofuran-5-yl)-1-methyl-9H-pyrido[3,4-b]indole] | > 10000 | > 80 | –
COc1ccc(-c2cc(Cl)cc3c2[nH]c2c(C)nccc23)cc1O [Example 180, 5-(6-Chloro-1-methyl-9H-pyrido[3,4-b]indol-8-yl)-2-methoxy-phenol] | 330 | > 80 | –
Cc1nccc2c1[nH]c1c(-c3ccc(OCC4CC4)cc3)cc(Cl)cc12 [Example 181, 6-Chloro-8-(4-cyclopropylmethoxy-phenyl)-1-methyl-9H-pyrido[3,4-b]indole] | 2100 | > 80 | –
